This note sets out measurements from PubChem BioAssay AID330 (DTP/NCI, 2004).

“And” between values parts separate entries of the source, which are not always exact repeats. Equal values may be shown once. Inconclusive results and toxic doses are left out.

The test deals with P388 leukemia ip, CD2F1 mice, survival T/C. Description: NCI In Vivo Anticancer Drug Screen. Data for tumor model P388 Leukemia (intraperitoneal) in CD2F1 (CDF1) mice. Conditions: endpoint: median survival time, higher = longer survival. A digest of the protocol: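 Mice carrying the transplanted tumor received test compound or vehicle. Survival was recorded in each group, and the value is the treated-group measurement divided by that of the vehicle-treated control group.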

The mark [1] stands for this setting: dose: 60.0 mg/kg/injection, schedule: Q01DX005 (ip), vehicle: saline with Tween-80.
Where [2] appears, read: dose: 120.0 mg/kg/injection, schedule: Q01DX005 (ip), vehicle: saline with Tween-80.
[3] abbreviates: dose: 240.0 mg/kg/injection, schedule: Q01DX005 (ip), vehicle: saline with Tween-80.
The mark [4] stands for this setting: dose: 50.0 mg/kg/injection, schedule: Q01DX005 (ip), vehicle: saline with Tween-80.
Setting [5] is: dose: 25.0 mg/kg/injection, schedule: Q01DX009 (ip), vehicle: saline with Tween-80.
The mark [6] stands for this setting: dose: 50.0 mg/kg/injection, schedule: Q01DX009 (ip), vehicle: saline with Tween-80.
[7] abbreviates: dose: 100.0 mg/kg/injection, schedule: Q01DX009 (ip), vehicle: saline with Tween-80.
The mark [8] stands for this setting: dose: 200.0 mg/kg/injection, schedule: Q01DX009 (ip), vehicle: saline with Tween-80.

`CCOC(=O)c1ccc(NC(=O)Nc2n[nH]c(NC(=O)Nc3ccc(C(=O)OCC)cc3)n2)cc1`: the T/C was 95 % of control (dose: 12.5 mg/kg/injection, schedule: Q01DX009 (ip), vehicle: distilled water + Tween-80); 114 % of control (dose: 25.0 mg/kg/injection, schedule: Q01DX009 (ip), vehicle: distilled water + Tween-80); 89 % of control (dose: 50.0 mg/kg/injection, schedule: Q01DX009 (ip), vehicle: distilled water + Tween-80); 88 % of control (dose: 100.0 mg/kg/injection, schedule: Q01DX009 (ip), vehicle: distilled water + Tween-80).

As to `NC(=O)c1cnn(CCOS(=O)(=O)O)c1N`, the T/C (dose: 12.5 mg/kg/injection, schedule: Q01DX009 (ip), vehicle: water) was 103 % of control; the T/C (dose: 25.0 mg/kg/injection, schedule: Q01DX009 (ip), vehicle: water) is 101 % of control; the T/C (dose: 50.0 mg/kg/injection, schedule: Q01DX009 (ip), vehicle: water) is 108 % of control; the T/C (dose: 100.0 mg/kg/injection, schedule: Q01DX009 (ip), vehicle: water) is 107 % of control; the T/C (dose: 200.0 mg/kg/injection, schedule: Q01DX009 (ip), vehicle: water) is 103 % of control.

Take `C=C(/C=C/CCCC)NC(=O)OCc1ccccc1`: the T/C is 97 % of control under setting [1], 96 % of control under setting [2] and 104 % of control under setting [3].

On to `CC(=O)Oc1ccc2ccccc2c1-c1ccccn1`, for which the T/C is 101 % of control (dose: 12.5 mg/kg/injection, schedule: Q01DX001 (ip), vehicle: saline + alcohol); 99 % of control (dose: 25.0 mg/kg/injection, schedule: Q01DX001 (ip), vehicle: saline + alcohol); 100 % of control (dose: 50.0 mg/kg/injection, schedule: Q01DX001 (ip), vehicle: saline + alcohol).

Regarding `O=C(O)c1c(Br)c(Br)c(Br)c(Br)c1-c1c2ccc(=O)cc-2oc2cc(O)ccc12`, the T/C under setting [1] is 101 % of control, the T/C under setting [2] was 105 % of control and the T/C under setting [3] was 101 % of control.

In the case of `NC(CSCCNc1ccc([N+](=O)[O-])cc1[N+](=O)[O-])C(=O)O` (stereo not given), the T/C (dose: 25.0 mg/kg/injection, schedule: Q04DX003 (ip), vehicle: Klucel (hydroxypropylcellulose) (HPC)) is 99 % of control; the T/C (dose: 50.0 mg/kg/injection, schedule: Q04DX003 (ip), vehicle: Klucel (hydroxypropylcellulose) (HPC)) was 100 % of control; the T/C (dose: 100.0 mg/kg/injection, schedule: Q04DX003 (ip), vehicle: Klucel (hydroxypropylcellulose) (HPC)) is 89 % of control; the T/C (dose: 200.0 mg/kg/injection, schedule: Q04DX003 (ip), vehicle: Klucel (hydroxypropylcellulose) (HPC)) was 99 % of control.

With `CCN(CC)c1ccc2c(cc1=O)[C@@H](NC(C)=O)CCc1cc(OC)c(OC)c(OC)c1-2`, the T/C is, setting by setting: (dose: 0.39 mg/kg/injection, schedule: Q01DX009 (ip), vehicle: Klucel (hydroxypropylcellulose) (HPC)) 103 % of control and 107 % of control and 120 % of control; (dose: 3.13 mg/kg/injection, schedule: Q01DX009 (ip), vehicle: Klucel (hydroxypropylcellulose) (HPC)) 181 % of control.

Regarding `O=C(N=Nc1ccccc1)Nc1ccc(Br)cc1`, the T/C by setting is: under setting [4], 101 % of control; (dose: 100.0 mg/kg/injection, schedule: Q01DX005 (ip), vehicle: saline with Tween-80) 101 % of control; (dose: 200.0 mg/kg/injection, schedule: Q01DX005 (ip), vehicle: saline with Tween-80) 104 % of control.

With `CCN(CC)CCN(C(=O)C1c2ccccc2Oc2ccccc21)c1ccccc1`, the T/C reads like this: (dose: 12.5 mg/kg/injection, schedule: Q01DX005 (ip), vehicle: Klucel (hydroxypropylcellulose) (HPC)) 106 % of control; (dose: 25.0 mg/kg/injection, schedule: Q01DX005 (ip), vehicle: Klucel (hydroxypropylcellulose) (HPC)) 100 % of control; (dose: 50.0 mg/kg/injection, schedule: Q01DX005 (ip), vehicle: Klucel (hydroxypropylcellulose) (HPC)) 100 % of control and 94 % of control.

On to `CC(C)=CCc1c2c(c(O)c3c(=O)c(-c4ccc(O)c(O)c4)coc13)C=CC(C)(C)O2`, for which the T/C runs as follows: under setting [5], 99 % of control; under setting [6], 105 % of control; under setting [7], 99 % of control; under setting [8], 106 % of control.

For the compound `S=P1(c2ccccc2)C=C(N2CCCC2)CC1` (stereo not given), the T/C is, setting by setting: (dose: 12.5 mg/kg/injection, schedule: Q01DX009 (ip), vehicle: saline) 109 % of control; (dose: 25.0 mg/kg/injection, schedule: Q01DX009 (ip), vehicle: saline) 110 % of control; (dose: 50.0 mg/kg/injection, schedule: Q01DX009 (ip), vehicle: saline) 112 % of control; (dose: 100.0 mg/kg/injection, schedule: Q01DX009 (ip), vehicle: saline) 104 % of control; (dose: 200.0 mg/kg/injection, schedule: Q01DX009 (ip), vehicle: saline) 96 % of control.

For the compound `COc1ccc(-n2cnc3c(cnn3C)c2=O)cc1`, the T/C is 100 % of control (dose: 60.0 mg/kg/injection, schedule: Q01DX005 (ip), vehicle: Klucel (hydroxypropylcellulose) (HPC)) and 91 % of control (dose: 120.0 mg/kg/injection, schedule: Q01DX005 (ip), vehicle: Klucel (hydroxypropylcellulose) (HPC)).

With `C/C(=N\NC(=O)c1ccncc1)c1cccc(/C(C)=N/NC(=O)c2ccncc2)n1.O=S(=O)([O-])[O-].[Fe+2]`, the T/C was 97 % of control (dose: 12.5 mg/kg/injection, schedule: Q01DX005 (ip), vehicle: saline with Tween-80); 100 % of control (dose: 25.0 mg/kg/injection, schedule: Q01DX005 (ip), vehicle: saline with Tween-80); 87 % of control and 95 % of control under setting [4].

Regarding `O=C1CCCSc2ccccc21`, the T/C by setting is: under setting [5], 100 % of control; under setting [6], 94 % of control; under setting [7], 102 % of control; under setting [8], 106 % of control.

For the compound `C/C=C(\CC)C(C#N)O[Si](C)(C)C` (stereo not given), the T/C by setting is: under setting [1], 93 % of control; under setting [2], 98 % of control.

Turning to `CCOC(=O)c1sc2nc(C)[nH]c(=O)c2c1C`, under setting [4], the T/C is 99 % of control.

On to `CCCCCCC(/C=C/c1ccc(Cl)c(Cl)c1)=N\Nc1c(Cl)cccc1Cl`, for which the T/C was 91 % of control (dose: 50.0 mg/kg/injection, schedule: Q01DX009 (ip), vehicle: Klucel (hydroxypropylcellulose) (HPC)); 91 % of control (dose: 100.0 mg/kg/injection, schedule: Q01DX009 (ip), vehicle: Klucel (hydroxypropylcellulose) (HPC)); 87 % of control (dose: 200.0 mg/kg/injection, schedule: Q01DX009 (ip), vehicle: Klucel (hydroxypropylcellulose) (HPC)).

As for `Cc1cc(NCCCNCCCNc2cc(C)nc3cc(N)ccc23)c2ccc(N)cc2n1`, where the note is “dose: 12.5 mg/kg/injection, schedule: Q01DX009 (ip), vehicle: other”, the T/C is 160 % of control.

For the compound `COc1cc([N+](=O)[O-])cc2c1OC1(N=C2)Sc2ccccc2N1C` (stereo not given), the T/C (dose: 100.0 mg/kg/injection, schedule: Q01DX001 (ip), vehicle: saline) is 103 % of control; the T/C (dose: 200.0 mg/kg/injection, schedule: Q01DX001 (ip), vehicle: saline) was 100 % of control; the T/C (dose: 400.0 mg/kg/injection, schedule: Q01DX001 (ip), vehicle: saline) is 103 % of control.

Take `CC(C)Nc1ncnc2[nH]ncc12`: the T/C was 101 % of control (dose: 16.0 mg/kg/injection, schedule: Q01DX009 (ip), vehicle: Klucel (hydroxypropylcellulose) (HPC)); 97 % of control (dose: 32.0 mg/kg/injection, schedule: Q01DX009 (ip), vehicle: Klucel (hydroxypropylcellulose) (HPC)); 87 % of control (dose: 64.0 mg/kg/injection, schedule: Q01DX009 (ip), vehicle: Klucel (hydroxypropylcellulose) (HPC)).

`C=C(C)C12CC(C)C34OC5(OC1C3C1OC1(CO)C(O)C1(O)C(OC(=O)c3ccccc3)C(C)C(C(C)CCCCCCC5O)C14)O2` (stereo not given): the T/C is 102 % of control (dose: 1.9 micrograms/kg/injection, schedule: Q01DX009 (ip), vehicle: distilled water + alcohol); 115 % of control (dose: 3.8 micrograms/kg/injection, schedule: Q01DX009 (ip), vehicle: distilled water + alcohol); 120 % of control (dose: 7.5 micrograms/kg/injection, schedule: Q01DX009 (ip), vehicle: distilled water + alcohol); 152 % of control (dose: 30.0 micrograms/kg/injection, schedule: Q01DX009 (ip), vehicle: distilled water + alcohol).

Consider `COc1ccc(CCNC(=O)Cc2ccc(OC)c(OCc3ccccc3)c2)cc1OC`, for which the T/C is 95 % of control (dose: 25.0 mg/kg/injection, schedule: Q01DX009 (ip), vehicle: other); 95 % of control (dose: 50.0 mg/kg/injection, schedule: Q01DX009 (ip), vehicle: other); 89 % of control (dose: 100.0 mg/kg/injection, schedule: Q01DX009 (ip), vehicle: other); 86 % of control (dose: 200.0 mg/kg/injection, schedule: Q01DX009 (ip), vehicle: other); 89 % of control (dose: 400.0 mg/kg/injection, schedule: Q01DX009 (ip), vehicle: other).
